# Legend:
# Zymoseptoria tritici = assay: Leaf blotch of wheat (SEPTTR) disease control on wheat seedlings; format: in vivo; set-up: key to SEPTTR 1DP, HV activity at 100 ppm (% control rating) / SEPTTR 3DC, HV activity at 100 ppm (% control rating) / SEPTTR disease control, 1DP / SEPTTR disease control, 3DC / SEPTTR 1DP disease control rating, HV activity / SEPTTR 3DC disease control rating, HV activity / SEPTTR 3DC, LV activity at 125.1 g/H (% Control rating) / SEPTTR 1DP, LV activity at 125.1 g/H (% Control rating) / SEPTTR 1DP disease control rating, LV activity at 125.1 g/H / SEPTTR 3DC disease control rating, LV activity at 125.1 g/H / SEPTTR 3DC disease control rating, HV activity at 100 ppm / SEPTTR 1DP disease control rating, HV activity at 100 ppm / HV activity at 100 ppm SEPTTR 3DC (disease control rating) / HV activity at 100 ppm SEPTTR 1DP (disease control rating) / LV activity at 125.1 g/H SEPTTR 1DP (disease control rating) / LV activity at 125.1 g/H SEPTTR 3DC (disease control rating): A: > 80; B: ≤ 80; C: Not Tested; D: No Activity Observed in the Reported Assay; conditions: low volume application, 125.1 g/H; for SEPTTR 1DP, LV activity at 125.1 g/H (% Control rating): 1 Day Protectant; for SEPTTR 3DC, LV activity at 125.1 g/H (% Control rating): 3 Day Curative; for SEPTTR 1DP disease control rating, LV activity at 125.1 g/H: 1 day protectant; for SEPTTR 3DC disease control rating, LV activity at 125.1 g/H: 3 day curative
# Puccinia triticina = assay: Wheat brown rust (PUCCRT) disease control on wheat seedlings; format: in vivo; set-up: key to PUCCRT 3DC, HV activity at 100 ppm (% control rating) / PUCCRT disease control, 3DC / PUCCRT 1DP disease control rating, HV activity / PUCCRT 3DC disease control rating, HV activity / PUCCRT 3DC, LV activity at 125.1 g/H (% Control rating) / PUCCRT 1DP, LV activity at 125.1 g/H (% Control rating) / PUCCRT 3DC disease control rating, LV activity at 125.1 g/H / PUCCRT 1DP disease control rating, LV activity at 125.1 g/H / PUCCRT 3DC disease control rating, HV activity at 100 ppm / PUCCRT 1DP disease control rating, HV activity at 100 ppm / HV activity at 100 ppm PUCCRT 3DC (disease control rating) / LV activity at 125.1 g/H PUCCRT 1DP (disease control rating) / LV activity at 125.1 g/H PUCCRT 3DC (disease control rating): A: > 80; B: ≤ 80; C: Not Tested; D: No Activity Observed in the Reported Assay; conditions: low volume application, 125.1 g/H; for PUCCRT 1DP, LV activity at 125.1 g/H (% Control rating): 1 Day Protectant; for PUCCRT 3DC, LV activity at 125.1 g/H (% Control rating): 3 Day Curative; for PUCCRT 1DP disease control rating, LV activity at 125.1 g/H: 1 day protectant; for PUCCRT 3DC disease control rating, LV activity at 125.1 g/H: 3 day curative
compound,measurement,setting,value
CCC(CC)[C@@H](Oc1ccc(-c2ccccc2)cc1)[C@H](C)OC(=O)[C@@H](NC(=O)c1nccc(OC)c1OCOC(C)=O)C(C)C [Cmpd 655],"SEPTTR 1DP, LV activity at 125.1 g/H (% Control rating)",Zymoseptoria tritici,A (> 80)
same,"SEPTTR 3DC, LV activity at 125.1 g/H (% Control rating)",Zymoseptoria tritici,B (≤ 80)
same,"PUCCRT 1DP, LV activity at 125.1 g/H (% Control rating)",Puccinia triticina,A (> 80)
same,"PUCCRT 3DC, LV activity at 125.1 g/H (% Control rating)",Puccinia triticina,B (≤ 80)
CCC(CC)[C@@H](Oc1ccc(F)cc1)[C@H](C)OC(=O)[C@@H](NC(=O)c1nccc(OC)c1OC(C)=O)C(C)C [Cmpd 657],"SEPTTR 1DP, LV activity at 125.1 g/H (% Control rating)",Zymoseptoria tritici,A (> 80)
same,"SEPTTR 3DC, LV activity at 125.1 g/H (% Control rating)",Zymoseptoria tritici,B (≤ 80)
same,"PUCCRT 1DP, LV activity at 125.1 g/H (% Control rating)",Puccinia triticina,A (> 80)
same,"PUCCRT 3DC, LV activity at 125.1 g/H (% Control rating)",Puccinia triticina,B (≤ 80)
CCC(CC)[C@@H](Oc1cccc(Cl)c1)[C@H](C)OC(=O)[C@@H](NC(=O)c1nccc(OC)c1OC(C)=O)C(C)C [Cmpd 658],"SEPTTR 1DP disease control rating, LV activity at 125.1 g/H",Zymoseptoria tritici,D
same,"SEPTTR 3DC disease control rating, LV activity at 125.1 g/H",Zymoseptoria tritici,B (≤ 80)
same,"PUCCRT 1DP disease control rating, LV activity at 125.1 g/H",Puccinia triticina,A (> 80)
same,"PUCCRT 3DC disease control rating, LV activity at 125.1 g/H",Puccinia triticina,B (≤ 80)
CCC(CC)[C@@H](Oc1ccccc1Cl)[C@H](C)OC(=O)[C@@H](NC(=O)c1nccc(OC)c1OC(C)=O)C(C)C [Cmpd 662],"SEPTTR 1DP disease control rating, LV activity at 125.1 g/H",Zymoseptoria tritici,D
same,"SEPTTR 3DC disease control rating, LV activity at 125.1 g/H",Zymoseptoria tritici,B (≤ 80)
same,"PUCCRT 1DP disease control rating, LV activity at 125.1 g/H",Puccinia triticina,A (> 80)
same,"PUCCRT 3DC disease control rating, LV activity at 125.1 g/H",Puccinia triticina,B (≤ 80)
CCC(CC)[C@@H](Oc1cccc(-c2ccccc2)c1)[C@H](C)OC(=O)[C@@H](NC(=O)c1nccc(OC)c1OC(C)=O)C(C)C [Cmpd 664],"SEPTTR 1DP disease control rating, LV activity at 125.1 g/H",Zymoseptoria tritici,D
same,"SEPTTR 3DC disease control rating, LV activity at 125.1 g/H",Zymoseptoria tritici,D
same,"PUCCRT 1DP disease control rating, LV activity at 125.1 g/H",Puccinia triticina,A (> 80)
same,"PUCCRT 3DC disease control rating, LV activity at 125.1 g/H",Puccinia triticina,D
CCC(CC)[C@H](Oc1cc(F)ccc1F)[C@H](C)OC(=O)[C@H](C)NC(=O)c1nccc(OC)c1OCOC(C)=O [Cmpd 671],"SEPTTR 1DP disease control rating, LV activity at 125.1 g/H",Zymoseptoria tritici,D
same,"SEPTTR 3DC disease control rating, LV activity at 125.1 g/H",Zymoseptoria tritici,B (≤ 80)
same,"PUCCRT 1DP disease control rating, LV activity at 125.1 g/H",Puccinia triticina,A (> 80)
same,"PUCCRT 3DC disease control rating, LV activity at 125.1 g/H",Puccinia triticina,A (> 80)
CCC(CC)[C@H](Oc1cc(F)cc(Cl)c1)[C@H](C)OC(=O)[C@H](C)NC(=O)c1nccc(OC)c1OCOC(C)=O [Cmpd 672],"SEPTTR 1DP disease control rating, LV activity at 125.1 g/H",Zymoseptoria tritici,A (> 80)
same,"SEPTTR 3DC disease control rating, LV activity at 125.1 g/H",Zymoseptoria tritici,B (≤ 80)
same,"PUCCRT 1DP disease control rating, LV activity at 125.1 g/H",Puccinia triticina,A (> 80)
same,"PUCCRT 3DC disease control rating, LV activity at 125.1 g/H",Puccinia triticina,B (≤ 80)
CCC(CC)C(Oc1cccc(F)c1)C(C)OC(=O)C(C)NC(=O)c1nccc(OC)c1OC(C)=O (centres unmarked) [Cmpd 673],"SEPTTR 1DP disease control rating, LV activity at 125.1 g/H",Zymoseptoria tritici,B (≤ 80)
same,"SEPTTR 3DC disease control rating, LV activity at 125.1 g/H",Zymoseptoria tritici,A (> 80)
same,"PUCCRT 1DP disease control rating, LV activity at 125.1 g/H",Puccinia triticina,A (> 80)
same,"PUCCRT 3DC disease control rating, LV activity at 125.1 g/H",Puccinia triticina,B (≤ 80)
CCC(CC)C(Oc1ccc(Cl)cc1)C(C)OC(=O)C(C)NC(=O)c1nccc(OC)c1OC(C)=O (centres unmarked) [Cmpd 674],"SEPTTR 1DP disease control rating, LV activity at 125.1 g/H",Zymoseptoria tritici,A (> 80)
same,"SEPTTR 3DC disease control rating, LV activity at 125.1 g/H",Zymoseptoria tritici,A (> 80)
same,"PUCCRT 1DP disease control rating, LV activity at 125.1 g/H",Puccinia triticina,A (> 80)
same,"PUCCRT 3DC disease control rating, LV activity at 125.1 g/H",Puccinia triticina,B (≤ 80)
CCC(CC)C(Oc1ccc(Cl)cc1Cl)C(C)OC(=O)C(C)NC(=O)c1nccc(OC)c1OC(C)=O (centres unmarked) [Cmpd 675],"SEPTTR 1DP disease control rating, LV activity at 125.1 g/H",Zymoseptoria tritici,A (> 80)
same,"SEPTTR 3DC disease control rating, LV activity at 125.1 g/H",Zymoseptoria tritici,A (> 80)
same,"PUCCRT 1DP disease control rating, LV activity at 125.1 g/H",Puccinia triticina,A (> 80)
same,"PUCCRT 3DC disease control rating, LV activity at 125.1 g/H",Puccinia triticina,B (≤ 80)
CCC(CC)C(Oc1cc(F)cc(Cl)c1)C(C)OC(=O)C(C)NC(=O)c1nccc(OC)c1OC(C)=O (centres unmarked) [Cmpd 677],"SEPTTR 1DP disease control rating, LV activity at 125.1 g/H",Zymoseptoria tritici,B (≤ 80)
same,"SEPTTR 3DC disease control rating, LV activity at 125.1 g/H",Zymoseptoria tritici,B (≤ 80)
same,"PUCCRT 1DP disease control rating, LV activity at 125.1 g/H",Puccinia triticina,B (≤ 80)
same,"PUCCRT 3DC disease control rating, LV activity at 125.1 g/H",Puccinia triticina,B (≤ 80)

# Source: patent US20180000085A1, “USE OF PICOLINAMIDE COMPOUNDS WITH FUNGICIDAL ACTIVITY” (DOW AGROSCIENCES LLC, priority 2014, published 2018)
